Measurements from PMC7891380 (Chemical Biology & Drug Design, 2020).

Test system: multidrug‐resistant A. baumannii
Assay: Peptide MIC, standard microbroth dilution assay
Assay type: cell-based, Acinetobacter baumannii
Conditions: result in words, based on MIC

LKIPGFVKDTLKKVAKGIFSAVAGAMTPS [Hymenochirin‐2B]
potency against multidrug‐resistant A. baumannii: high potency
